# According to ChEMBL document CHEMBL1148881 (Bioorg Med Chem Lett, 2007):
# Experiments:
# [1] = target: T1, Peroxisome proliferator-activated receptor alpha (Homo sapiens, UniProt Q07869)
# T1 sequence (Q07869 whole entry): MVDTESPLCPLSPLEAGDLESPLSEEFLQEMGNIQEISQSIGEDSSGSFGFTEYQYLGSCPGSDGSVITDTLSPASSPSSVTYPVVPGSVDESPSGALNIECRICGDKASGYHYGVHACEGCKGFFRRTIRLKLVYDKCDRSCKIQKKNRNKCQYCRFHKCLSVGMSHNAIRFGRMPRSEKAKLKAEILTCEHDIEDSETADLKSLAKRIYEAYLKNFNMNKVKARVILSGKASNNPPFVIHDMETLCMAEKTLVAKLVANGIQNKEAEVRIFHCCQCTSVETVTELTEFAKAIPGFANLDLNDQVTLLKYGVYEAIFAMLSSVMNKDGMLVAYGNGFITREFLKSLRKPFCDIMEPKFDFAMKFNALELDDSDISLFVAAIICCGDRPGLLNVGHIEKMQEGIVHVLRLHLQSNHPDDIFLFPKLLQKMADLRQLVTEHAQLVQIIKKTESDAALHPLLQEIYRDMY
# Description: Displacement of [3H]2-(4-(2-(3-(2,4-difluorophenyl)-1-heptylureido)ethyl)phenoxy)-2-methylbutanoic acid from human PPARalpha after 30 mins by SPA assay
# [2] = target: T2, Peroxisome proliferator-activated receptor delta (Homo sapiens, UniProt Q03181)
# T2 sequence (Q03181 whole entry): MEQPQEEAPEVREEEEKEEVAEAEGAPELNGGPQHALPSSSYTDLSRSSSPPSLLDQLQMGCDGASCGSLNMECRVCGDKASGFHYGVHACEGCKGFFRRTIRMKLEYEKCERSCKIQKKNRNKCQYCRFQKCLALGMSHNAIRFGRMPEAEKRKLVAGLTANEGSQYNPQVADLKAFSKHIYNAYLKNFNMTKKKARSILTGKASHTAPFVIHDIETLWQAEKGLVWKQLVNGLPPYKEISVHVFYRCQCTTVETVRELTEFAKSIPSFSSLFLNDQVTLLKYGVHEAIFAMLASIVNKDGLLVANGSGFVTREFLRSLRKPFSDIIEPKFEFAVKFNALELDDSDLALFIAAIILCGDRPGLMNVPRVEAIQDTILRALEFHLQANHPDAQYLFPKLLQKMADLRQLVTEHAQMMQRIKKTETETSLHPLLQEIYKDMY
# Description: Displacement of [3H]2-(4-(3-(4-acetyl-3-hydroxy-2 propyl-phenoxy)propoxy)phenoxy)acetic acid from human PPARdelta after 30 mins by SPA assay
# [3] = target: T2, Peroxisome proliferator-activated receptor delta; type: functional, cell-based, HepG2
# Description: Agonist activity at human PPARdelta expressed in HepG2 cells after 16 hrs by luciferase reporter gene assay
IC50 [1] [nM],IC50 [2] [nM],EC50 [3] [nM],IC50 [3] [nM],Compound
> 10000,191,13600,,O=C(O)COc1ccc(SCc2ccc(OCc3ccc(F)cc3)cc2)c2c1CCC2
> 10000,125,2210,,O=C(O)COc1ccc(SCc2ccc(OCc3ccccc3)cc2)c2c1CCC2
4950,120,1970,,COc1ccc(COc2ccc(CSc3ccc(OCC(=O)O)c4c3CCC4)cc2)cc1
> 10000,10.4,230,,O=C(O)COc1ccc(SCc2ccccc2OCc2ccc(C(F)(F)F)cc2)c2c1CCC2
128,20,374,,Cc1cc(SCc2ccc(OCc3ccc(C(F)(F)F)cc3)cc2)c(Cl)cc1OCC(=O)O
3480,356,1720,,O=C(O)COc1ccc(SCc2ccc(OCc3ccc(F)cc3C(F)(F)F)cc2)c2c1CCC2
> 10000,286,2610,,O=C(O)COc1ccc(SCc2c(F)cccc2OCc2ccc(C(F)(F)F)cc2)c2c1CCC2
> 10000,1.7,70,,O=C(O)COc1ccc(SCc2cc(F)ccc2OCc2ccc(C(F)(F)F)cc2)c2c1CCC2
791,,,,O=C(O)COc1ccc(SCc2ccc(OCc3ccc(C(F)(F)F)cc3)cc2)c2c1CCCO2
428,313,,> 10000,Cc1cc(SCc2ccc(OCc3ccc(C(F)(F)F)cc3)cc2)c2c(c1OCC(=O)O)CCCO2
1200,,,,O=C(O)COc1ccc(SCc2ccc(OCc3ccc(C(F)(F)F)cc3)cc2)c2c1CCC2
3670,111,,,O=C(O)COc1ccc(SCc2cccc(F)c2OCc2ccc(C(F)(F)F)cc2)c2c1CCC2
4.7,,,,COc1cc(OCC(=O)O)c(C)cc1SCc1ccc(OCc2ccc(C(F)(F)F)cc2)cc1
672,76,530,,O=C(O)COc1ccc(SCc2ccc(OCc3ccc(OC(F)(F)F)cc3)cc2)c2c1CCC2
578,19,252,,Cc1cc(SCc2ccc(OCc3ccc(C(F)(F)F)cc3)cc2)ccc1OCC(=O)O
4190,69,585,,O=C(O)COc1ccc(SCc2ccc(OCc3cc(Cl)ccc3Cl)cc2)c2c1CCC2
1540,148,267,,CC(C)(C)c1ccc(COc2ccc(CSc3ccc(OCC(=O)O)c4c3CCC4)cc2)cc1
311,586,,> 10000,Cc1cc(SCc2ccc(OCc3ccc(C(F)(F)F)cc3)cc2)c2c(c1OCC(=O)O)CCC2
3110,62,,,O=C(O)COc1ccc(SCc2ccc(F)cc2OCc2ccc(C(F)(F)F)cc2)c2c1CCC2
3910,89,933,,O=C(O)COc1ccc(SCc2ccc(OCc3ccc(Cl)cc3)cc2)c2c1CCC2
